From patent publication US9556160B2, “Guanidine compound” (Astellas Pharma Inc., priority 2011, dated 2017)
Structures can show the parent of a compound that is named as a salt.

Tests used:
[1] = tested on: VAP-1 enzyme (SSAO) activity in rat plasma; test: Inhibitory effect on rat VAP-1 enzyme (SSAO) activity in rat plasma after oral administration; type: in vivo, Wistar male rats; settings: rat plasma VAP-1 activity, oral 0.3 mg/kg; for Inhibition Ratio (%) 1 h: 1 h after administration; for Inhibition Ratio (%) 3 h: 3 h after administration; for Inhibition Ratio (%) 6 h: 6 h after administration; for Inhibition Ratio (%) 24 h: 24 h after administration; for Inhibition Ratio (%) 12 h: 12 h after administration
Description: Eight-week to twelve-week Wistar male rats were fasted for 20 hours, and orally administered with a test drug ([…]). Heparin blood collection from the tail vein was performed immediately before the administration, and at 1 h, 3 h, 6 h, 12 h, or 24 h after the administration. The resulting blood was subjected to centrifugation at 14000 rpm for 5 minutes to separate plasma, and the VAP-1 enzyme activity in the resulting plasma was measured by a radio-enzyme assay method.
For the radio-enzyme assay method, ^14C-benzylamine which is a synthetic substrate (10 μM) was reacted with the resulting plasma at 37° C., and the resulting metabolite was extracted with a mixture of toluene/ethyl acetate. The radioactivity was measured and taken as a VAP-1 enzyme activity in the plasma. The effect of the test drug was calculated from the inhibitory ratio (%) of the VAP-1 activity after the administration of the test drug relative to the VAP-1 activity in the plasma immediately before the administration.

[2] = molecular target: human VAP-1 enzyme (SSAO) (Homo sapiens (Human), UniProt Q16853); test: Inhibitory effect on human VAP-1 enzyme (SSAO) activity, radiochemistry-enzymatic assay with 14C-benzylamine; type: biochemical; settings: CHO-expressed human VAP-1, 14C-benzylamine 1×10^−5 mol/L
Description: (§1) After homogenizing CHO (Chinese Hamster Ovary) cells stably expressing a human VAP-1 enzyme (SSAO) in a 50 mM phosphate buffer containing 1% NP-40, an enzyme suspension was obtained by taking the supernatant obtained by centrifugation. The enzyme suspension was preincubated with the compound of the present invention in a 96-well microplate at room temperature for 30 minutes. Subsequently, the enzyme suspension was incubated with ^14C-benzylamine (a final concentration of 1×10^−5 mol/L) to a final volume of […] at 37° C. for 1 hour. The enzymatic reaction was stopped by the addition of 2 mol/L (50 pt) of citric acid.

rat VAP-1 enzyme (SSAO) = rat VAP-1 enzyme (SSAO) (Rattus norvegicus (Rat), UniProt O08590); test: Inhibitory effect on rat VAP-1 enzyme (SSAO) activity, radiochemistry-enzymatic assay with 14C-benzylamine; type: biochemical; settings: CHO-expressed rat VAP-1, 14C-benzylamine 1×10^−5 mol/L
Description: as §1, with “rat” for “human”, “μL)” for “pt)”, “acid. The oxidation products were extracted directly in a 200 μL toluene scintillator, and the radioactivity was measured with a scintillation spectrometer.” for “acid.”

Chain of rat VAP-1 enzyme (SSAO) (O08590 whole entry): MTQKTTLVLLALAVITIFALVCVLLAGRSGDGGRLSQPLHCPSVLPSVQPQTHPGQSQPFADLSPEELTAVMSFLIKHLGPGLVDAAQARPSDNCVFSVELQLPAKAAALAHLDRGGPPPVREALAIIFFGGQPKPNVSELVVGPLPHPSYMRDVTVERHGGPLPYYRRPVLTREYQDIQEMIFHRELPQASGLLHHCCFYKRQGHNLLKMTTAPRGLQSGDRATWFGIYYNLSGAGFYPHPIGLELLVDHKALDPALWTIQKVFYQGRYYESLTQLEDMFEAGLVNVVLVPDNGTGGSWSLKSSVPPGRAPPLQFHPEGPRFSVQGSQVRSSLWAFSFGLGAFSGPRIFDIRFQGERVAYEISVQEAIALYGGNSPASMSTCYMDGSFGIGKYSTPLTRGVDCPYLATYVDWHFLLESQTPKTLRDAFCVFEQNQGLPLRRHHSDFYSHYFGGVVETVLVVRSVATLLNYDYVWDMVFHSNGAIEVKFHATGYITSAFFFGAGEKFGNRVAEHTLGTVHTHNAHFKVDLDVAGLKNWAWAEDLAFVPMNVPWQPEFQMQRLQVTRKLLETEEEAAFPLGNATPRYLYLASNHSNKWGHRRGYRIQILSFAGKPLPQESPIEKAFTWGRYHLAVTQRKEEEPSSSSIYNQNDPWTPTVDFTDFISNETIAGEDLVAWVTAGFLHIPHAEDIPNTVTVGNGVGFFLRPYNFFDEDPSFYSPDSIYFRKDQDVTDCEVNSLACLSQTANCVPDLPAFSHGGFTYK
Chain of human VAP-1 enzyme (SSAO) (Q16853 whole entry): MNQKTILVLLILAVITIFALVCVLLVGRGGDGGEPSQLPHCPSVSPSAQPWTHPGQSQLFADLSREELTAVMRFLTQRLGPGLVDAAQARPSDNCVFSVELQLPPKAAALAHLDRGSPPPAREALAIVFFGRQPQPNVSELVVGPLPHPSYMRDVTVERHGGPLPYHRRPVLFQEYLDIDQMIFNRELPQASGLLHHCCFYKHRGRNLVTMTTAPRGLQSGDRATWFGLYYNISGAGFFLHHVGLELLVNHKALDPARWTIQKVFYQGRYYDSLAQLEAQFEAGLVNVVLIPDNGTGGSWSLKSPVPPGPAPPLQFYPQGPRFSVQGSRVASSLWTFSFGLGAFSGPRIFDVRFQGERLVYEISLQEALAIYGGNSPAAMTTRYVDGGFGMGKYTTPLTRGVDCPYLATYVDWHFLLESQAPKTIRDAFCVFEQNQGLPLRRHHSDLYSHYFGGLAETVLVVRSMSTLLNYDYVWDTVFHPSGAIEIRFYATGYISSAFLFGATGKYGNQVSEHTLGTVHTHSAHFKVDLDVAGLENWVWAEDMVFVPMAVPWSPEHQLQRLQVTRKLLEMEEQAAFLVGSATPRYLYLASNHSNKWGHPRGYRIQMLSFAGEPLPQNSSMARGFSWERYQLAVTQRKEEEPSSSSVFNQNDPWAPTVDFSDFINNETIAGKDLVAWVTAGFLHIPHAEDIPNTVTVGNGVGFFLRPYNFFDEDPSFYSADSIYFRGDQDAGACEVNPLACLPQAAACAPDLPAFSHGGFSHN

IC50 [2]	IC50 (rat VAP-1 enzyme (SSAO))	SMILES	Inhibition Ratio (%) 1 h [1]	Inhibition Ratio (%) 3 h [1]	Inhibition Ratio (%) 6 h [1]	Inhibition Ratio (%) 24 h [1]	Inhibition Ratio (%) 12 h [1]
7.2 nM	1.9 nM	N=C(N)NC(=O)OCc1cccc(-c2cnc(OCC3CCN(C(=O)c4cccnc4)CC3)nc2)c1F [Example 29]	46%	60%	58%	22%	
23 nM	1.7 nM	N=C(N)NC(=O)OCc1cccc(N2CCC(c3ccncc3)CC2)c1F [Example 52]	90%	68%	52%		37%
3.4 nM	1.1 nM	COC1CN(c2ncc(-c3cccc(COC(=O)NC(=N)N)c3F)cn2)C1 [Example 63]	83%	87%	80%		68%
5.3 nM	1.8 nM	N=C(N)NC(=O)OCc1cccc(-c2cnc(OCC3CCN(C(=O)C4CC4)CC3)nc2)c1F [Example 74]	79%	74%	81%	40%	
25 nM	1.9 nM	CC(=O)Nc1nc(CCc2cccc(CNC(=O)NC(=N)N)c2)cs1.Cl [Example 83]	34%	66%	86%		53%
14 nM	2.6 nM	CC(=O)N1CCC(COc2ncc(-c3cccc(CNC(=O)NC(=N)N)c3F)cn2)CC1 [Example 105]	22%	38%	31%	6%	
32 nM	1.4 nM	CC1(O)CCN(c2ncc(N3CCN(c4cccc(COC(=O)NC(=N)N)c4F)CC3)cn2)CC1 [Example 110]	96%	96%	95%	75%	
29 nM	1.7 nM	N=C(N)NC(=O)OCc1cccc(N2CCN(c3cnc(N4CC[C@@H](F)C4)nc3)CC2)c1F [Example 118]	87%	86%	88%	59%	
15 nM	0.53 nM	COc1ncc(N2CCN(c3cccc(COC(=O)NC(=N)N)c3F)CC2)cn1 [Example 126]	98%	97%	97%	69%	
49 nM	2.1 nM	CCS(=O)(=O)N1CCN(c2cccc(COC(=O)NC(=N)N)c2F)CC1 [Example 157]	95%	91%	80%	39%	
33 nM	4.4 nM	N=C(N)NC(=O)OCc1cccc(-c2cnc(N3CC[C@H](F)C3)nc2)c1 [Example 178]	63%	73%	67%		80%
25 nM	1 nM	CC(=O)N1CCC(OC2CCN(c3cccc(COC(=O)NC(=N)N)c3F)CC2)CC1 [Example 220]	80%	80%	84%	27%	
19 nM	0.95 nM	N=C(N)NC(=O)OCc1cccc(N2CCN(C(=O)CC3CCOCC3)CC2)c1F [Example 273]	55%	74%	54%	19%	
	0.97 nM	N=C(N)NC(=O)OCc1cccc(N2CCN(c3cccnc3)CC2)c1F [Example 293]					
19 nM	1.7 nM	Cc1ccc(N2CCN(c3cccc(COC(=O)NC(=N)N)c3F)CC2)cn1 [Example 300]	92%	93%	88%	85%	
34 nM	6.6 nM	N=C(N)NC(=O)OCc1cccc(N2CCN(c3cccnc3)C(=O)C2)c1F [Example 304]	52%	56%	56%	18%	
11 nM	0.9 nM	COC1CN(c2ncc(N3CCN(c4cccc(COC(=O)NC(=N)N)c4F)CC3)cn2)C1 [Example 316, 2-fluoro-3-{4-[2-(3-methoxyazetidin-1-yl)pyrimidin-5-yl]piperazin-1-yl}benzyl carbamimidoylcarbamate trihydrochloride]	91%	99%	98%		91%
51 nM	22 nM	N=C(N)NC(=O)NCc1cccc(-c2cnc(N3CCOCC3)nc2)c1 [Example 322]	40%	55%	50%		38%
11 nM	2 nM	N=C(N)NC(=O)OCc1cccc(-c2cnc(N3CCN(c4ccc(CCC(=O)O)cc4)CC3)nc2)c1F [Example 335]	82%	84%	86%		83%
14 nM	1.8 nM	CCC(=O)N1CCC(OC2CN(c3cccc(COC(=O)NC(=N)N)c3F)C2)CC1 [Example 551]	68%	59%	51%	5%	
20 nM	3 nM	COCc1ccc(OC2CN(c3cccc(COC(=O)NC(=N)N)c3F)C2)cn1 [Example 553]	67%	57%	50%	40%	
21 nM	0.97 nM	COCc1ccc(N2CCN(c3cccc(COC(=O)NC(=N)N)c3F)CC2)cn1 [Example 554]	99%	100%	87%	72%	
20 nM	3.5 nM	Cc1cc(COC2CN(c3cccc(COC(=O)NC(=N)N)c3F)C2)cc(C)n1 [Example 555]	67%	69%	54%	27%	
2.7 nM	1.3 nM	N=C(N)NC(=O)OCc1cccc(N2CCN(c3ccn4ccnc4c3)CC2)c1F [Example 556]	55%	70%	46%	19%	
23 nM	1.2 nM	COCc1cncc(N2CCN(c3cccc(COC(=O)NC(=N)N)c3F)CC2)c1 [Example 558]	84%	87%	81%	62%	
4.3 nM	0.81 nM	CC(=O)N1CCC(C2CN(c3cccc(COC(=O)NC(=N)N)c3F)C2)CC1 [Example 559]	86%	89%	82%	59%	
9 nM	1.4 nM	CCC(=O)N1CCC(C2CN(c3cccc(COC(=O)NC(=N)N)c3F)C2)CC1 [Example 560]	89%	91%	84%	58%	

SMILES	IC50 [2]	IC50 (rat VAP-1 enzyme (SSAO))	Inhibition Ratio (%) 1 h [1]	Inhibition Ratio (%) 3 h [1]	Inhibition Ratio (%) 6 h [1]	Inhibition Ratio (%) 24 h [1]	Inhibition Ratio (%) 12 h [1]
Cl.N=C(N)NC(=O)OCc1cccc(-c2cnc(N3CCOCC3)nc2)c1F [Example 81]	9.7 nM	3.9 nM	78%	78%	78%		53%
